Converted amounts (≈) assume the structure as drawn.

Holding throughout (format): functional
Assay [1] has as its system Mycobacterium tuberculosis. Briefly: Antimycobacterial activity against Mycobacterium tuberculosis H37Rv overexpressing folP1 by alamar blue staining based microplate analysis. On the technique in general: The colour change of resazurin is a common sign of viable cells or microbes.
Assay [2] relates to Mycobacterium tuberculosis. Briefly: Antimycobacterial activity against Mycobacterium tuberculosis H37Rv overexpressing folC by alamar blue staining based microplate analysis.
The subject of assay [3] is Mycobacterium tuberculosis. As to the kind of experiment: Antimycobacterial activity against Mycobacterium tuberculosis H37Rv overexpressing dfrA by alamar blue staining based microplate analysis.
For assay [4], the system named is Mycobacterium tuberculosis. Briefly: Antimycobacterial activity against Mycobacterium tuberculosis H37Rv overexpressing ribD by alamar blue staining based microplate analysis.

Turning to `O=C(Nc1ccc(C(=O)O)c(O)c1)c1ccc2ccccc2n1`, the MIC in assay [1], in assay [2], in assay [3] and in assay [4] was 8 µg/mL (≈ 25.9 µM) each time.

On to `Nc1ccc(C(=O)O)c(O)c1` [AMINOSALICYLIC ACID], for which the minimum inhibitory concentration (MIC) in assay [1] is 0.02 µg/mL (≈ 0.131 µM); in assay [2] it was 0.02 µg/mL (≈ 0.131 µM); in assay [3], over 5 µg/mL; in assay [4] it was 2.5 µg/mL (≈ 16.3 µM).

As for `O=C(Nc1ccc(C(=O)[O-])c(O)c1)c1ccc2ccccc2n1.[Na+]`, the MIC in assay [1], in assay [2], in assay [3] and in assay [4] was 8 µg/mL each time.

The MIC is the lowest concentration found to suppress growth. Low values mean a more susceptible organism, high ones a less susceptible organism.

The values are drawn from ChEMBL document CHEMBL5625173, “Antimycobacterial pyridine carboxamides: From design to in vivo activity” (Eur J Med Chem, 2023).
